This is an account of results in publication PMC5697638, “Identification of a Potent Phosphoinositide 3‐Kinase Pan Inhibitor Displaying a Strategic Carboxylic Acid Group and Development of Its Prodrugs” (Chemmedchem, 2017).

The test system of data set [1] is PI3K/Akt signaling in PC3 cells. The data set can be described thus: PI3K/Akt signaling, Western blot, PC3 cells. The data set is classed as cell-based. The conditions noted are these: 12 h treatment, immunoblot. The procedure:
PC3 cells were treated with the indicated concentrations of 64 for 12 h. At the end of treatment, cells were harvested and total cell lysates were prepared. Immunoblot analysis was performed to analyze the expression levels of p‐Akt (T308 and S473), p‐PRAS40 (T246; a target of Akt), as well as the levels of p‐p70S6K (T389), p‐GSK3α/β (S9), and p‐FOXO3A (T32). The figure is representative of at least three independent experiments.
Western blot analysis: PC3 cells were seeded in 96‐well plates in the presence of free Dulbecco's modified Eagle's medium (DMEM) high‐glucose GlutaMAX^TM (Gibco), 10 % fetal bovine serum (Invitrogen) supplemented with 5000 U mL^−1 penicillin–streptomycin (Gibco). Subsequently, PC3 cells were incubated with increasing concentrations of […] for 12 h. Cells were then lysed with a lysis buffer containing 20 mM Tris‐HCl pH 8, 138 mM NaCl, 2.7 mM KCl, 1 mM CaCl2, 5 mM EDTA pH 8, 1 mM MgCl2, 5 % glycerol, 1 % Triton X‐100, and protein extracts were analyzed by Western blot analysis. […]

A further data set relates to PC3 cells. Description: cell-cycle analysis, propidium iodide flow cytometry. The conditions noted are these: 10 μM, 48 h. It is filed as cell-based. The procedure:
Cell‐cycle analysis: For DNA content determination, PC3 cells were seeded at 4×10^5 cells per 6 cm dish in triplicate in the presence of DMEM high glucose GlutaMAXTM (Gibco), 10 % fetal bovine serum (Invitrogen) supplemented with 5000 U mL^−1 penicillin–streptomycin (Gibco). The day after seeding, cells were treated for 48 h with 10 μM 64 or DMSO. Subsequently, PC3 cells were detached with 0.1 % trypsin–EDTA (Gibco), fixed in 70 % ethanol overnight at −20 °C, and stained for 40 min at […] with PI solution, containing 0.05 % Triton X‐100, 0.1 mg mL^−1 RNase, and 25 μg mL^−1 propidium iodide. Sample were analyzed for the DNA content by using a FACS‐Calibur flow cytometer (Becton Dickinson Immunocytometry Systems, San Jose, USA). The percentages of cells in the G0/G1, S, and G2 phases were calculated.
Background: In flow cytometry, cells or beads pass a laser one at a time.

Data set [2] is described as follows: stability in mouse plasma. The conditions noted are these: mouse, mouse plasma, 50 μM substrate, 30 min incubation, 37 °C; read-out: Mouse plasma t 1/2. The data set is classed as in vitro ADME. The procedure:
Twelve esters were prepared (see the Experimental Section for their synthesis and the Supporting Information for chromatographic methods) and evaluated in terms of metabolic stability. For this task, a combined approach based on microsomal and plasmatic stability assays was exploited considering the relevance of the plasmatic and hepatic tissues in esterase activity. Microsomal stability of the selected esters was evaluated by monitoring the disappearance of the substrate incubated in rat liver microsomes (RLM) at 50 μM concentration, in the presence of NADPH. In Table 4, the percentage of the remaining substrate, after incubation (t=60 min), with respect to the initial amount is reported. Overall, the compounds underwent a relevant metabolic transformation, and the substrate depletion ranged from 0 (for 76) to 100 % (for 70). This is mainly due to hydrolysis of the ester function, whereas the metabolites arising from the oxidation catalyzed by the NADPH‐dependent monooxygenase system were negligible from a quantitative point of view. Indeed, the main metabolite formed during the incubation of the esters was corresponding carboxyl derivative 37. […] Moreover, whereas CH2‐pyridin‐4‐yl ester 70 was completely metabolized, corresponding benzyl derivative 65 and piperonyl derivative 72 were more hydrolytically stable, and their residual substrates were 53 and 83 %, respectively. The hydrolytic stability of the selected esters was also evaluated by monitoring the depletion of the substrate incubated at a 50 μM concentration in mouse plasma over a period of 30 min. As expected, the plasmatic metabolic fate of the esters was characterized by the formation of 37 as the only metabolite (see Figure S4). The rate constant k [min^−1], derived for the substrate peak area versus time curve (single‐exponential decay equation—GraphPad Prism software, Inc., San Diego, CA (USA); see Figure S5) was used to calculate the in vitro half‐life t 1/2 [min], and the values are reported in Table 4. […]
Stability of PI3K inhibitors in mouse plasma
An aliquot of 460 µL of blank plasma spiked with substrate (50 µM, final concentration, DMSO 5%) was incubated at 37 °C for 30 minutes. Aliquots (70 µL) of the incubation took at 0-2-5-10-20, and 30 minutes were diluted with 140 µL of acetonitrile, homogenized, and centrifuged at 13,000 rpm for five minutes. Supernatants (20 µL) were injected onto HPLC.
A Shimadzu HPLC system (Shimadzu, Kyoto, Japan), consisting of two LC-10AD Vp module pumps, an SLC-10A Vp system controller, an SIL-10AD Vp autosampler, and a DGU-14-A on-line degasser was used for the analysis. All the chromatographic separations were performed on a Phenomenex Luna C18 5µm (150 x 4.6 mm i.d.) (Phenomenex srl, Castel Bolognese, Italy) as a stationary phase protected by a Luna C18 SecurityGuard (Phenomenex srl). The SPD-M10Avp photodiode array detector was used to detect the analyte at 254 nm. LC Solution 1.24 software was used to process the chromatograms. Aliquots (20 µL) of supernatants obtained from incubations were injected onto the HPLC system and eluted with a mobile phase (flow rate: 1 mL/min) consisting of solvent A- 0.5% aqueous formic acid solution and solvent B- acetonitrile/methanol 80:20.
The eluants were filtered through a 0.45-µm pore size polyvinylidene difluoride membrane […]
The following gradients programs were used: […]

In the case of `COC(=O)c1cccc(Cn2cc(-c3cccc4c(=O)cc(N5CCOCC5)[nH]c34)nn2)c1` [Compound 64, Methyl 3‐{[4‐(2‐morpholino‐4‐oxo‐1,4‐dihydroquinolin‐8‐yl)‐1H‐1,2,3‐triazol‐1‐yl]methyl}benzoate], the “levels of p-Akt and Akt effectors” value in data set [1] was “attenuated, in a dose‐dependent manner, the levels of p‐Akt”. The “effect on cell cycle” value with PC3 cells is “induce cell‐cycle arrest”. For the same molecule, in data set [2], the half-life at 50 µM amounted to 13.3 min.
